Values of other authors, collected in patent publication EP1077694B1, “ARYL NITRONE THERAPEUTICS FOR THE TREATMENT OF INFLAMMATORY BOWEL DISEASE” (Renovis, Inc., priority 1998, dated 1999).

Test system: senescence-accelerated mice

CC(C)(C)[N+]([O-])=Cc1ccccc1 [PBN, α-phenyl-t-butyl nitrone]
increase the life span: one third
